Activity calls are given as the source filed them.
Experiments:
Coagulation factor XII = biological target: T1, Coagulation factor XII (Homo sapiens, UniProt P00748); experiment: activated coagulation factor XII inhibitor potency, concentration-effect curve, cell-free (AID 716); assay type: functional
T1 sequence (P00748 whole entry): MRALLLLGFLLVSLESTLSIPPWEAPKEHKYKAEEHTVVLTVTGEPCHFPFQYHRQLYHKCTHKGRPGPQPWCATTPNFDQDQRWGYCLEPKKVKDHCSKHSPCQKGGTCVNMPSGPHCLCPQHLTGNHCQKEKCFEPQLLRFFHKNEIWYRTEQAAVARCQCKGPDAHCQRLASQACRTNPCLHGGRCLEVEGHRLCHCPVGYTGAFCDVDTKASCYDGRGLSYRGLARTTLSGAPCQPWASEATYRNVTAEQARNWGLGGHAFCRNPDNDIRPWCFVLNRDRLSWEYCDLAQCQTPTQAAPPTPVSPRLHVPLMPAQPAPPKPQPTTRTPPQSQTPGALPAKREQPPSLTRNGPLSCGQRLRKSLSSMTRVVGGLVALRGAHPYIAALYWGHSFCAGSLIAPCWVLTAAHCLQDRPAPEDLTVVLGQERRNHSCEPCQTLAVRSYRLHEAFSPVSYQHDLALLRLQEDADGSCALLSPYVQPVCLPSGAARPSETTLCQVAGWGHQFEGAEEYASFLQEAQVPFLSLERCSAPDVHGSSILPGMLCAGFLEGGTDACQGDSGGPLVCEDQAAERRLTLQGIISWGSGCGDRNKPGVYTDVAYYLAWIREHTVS

CHO-K1 = experiment: (§1) Counterscreen for antagonists of the orexin 1 receptor (OX1R; HCRTR1): Homogeneous time resolved fluorescence (HTRF)-based cell-based dose response assay to identify antagonists of the parental CHO-K1 cell line. [Related pubchem assays (depositor defined):AID434989, AID435008, AID463079, AID485270, AID492963, AID492964, AID492965, AID493232, AID504699, AID504701]; assay type: functional; details: Cricetulus griseus
[1] = biological target: Sphingosine 1-phosphate receptor 1 (Homo sapiens, UniProt P21453); assay type: functional;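 also: Tango beta-arrestin reporter U2OS cells stimulated with S1P near its EC80; inhibitor potency meaning antagonism of receptor activation by the natural agonist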
[2] = biological target: T2, Voltage-gated N-type calcium channel alpha-1B subunit/Amyloid beta A4 precursor protein-binding family A member 1 (Homo sapiens, UniProt Q00975+Q02410); assay type: protein assay
[3] = biological target: T3, Orexin/Hypocretin receptor type 1 (Homo sapiens, UniProt O43613); experiment: Homogeneous Time Resolved Fluorescence (HTRF)-based cell-based high throughput dose response assay for antagonists of the orexin 1 receptor (OX1R; HCRTR1). [Related pubchem assays (depositor defined):AID434989, AID435008, AID463079, AID485270, AID492963, AID492964, AID492965, AID493232, AID504717, AID504718]; assay type: functional
T3 sequence (O43613 whole entry): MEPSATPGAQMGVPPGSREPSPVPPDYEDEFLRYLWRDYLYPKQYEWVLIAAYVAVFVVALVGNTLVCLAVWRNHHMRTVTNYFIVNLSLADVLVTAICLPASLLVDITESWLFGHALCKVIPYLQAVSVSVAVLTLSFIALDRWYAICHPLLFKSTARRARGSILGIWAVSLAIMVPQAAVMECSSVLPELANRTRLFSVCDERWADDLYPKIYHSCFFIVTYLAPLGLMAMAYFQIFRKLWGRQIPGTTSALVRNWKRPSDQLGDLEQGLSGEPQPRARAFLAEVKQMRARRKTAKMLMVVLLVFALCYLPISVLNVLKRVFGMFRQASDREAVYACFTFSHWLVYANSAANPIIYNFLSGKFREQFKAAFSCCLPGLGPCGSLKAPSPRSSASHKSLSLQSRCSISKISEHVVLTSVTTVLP

[4] = biological target: T3, Orexin/Hypocretin receptor type 1; experiment: Fluorescence-based cell-based high throughput dose response assay for antagonists of the orexin 1 receptor (OX1R; HCRTR1). [Related pubchem assays (depositor defined):AID434989, AID435008, AID463079, AID485270, AID492963, AID492964, AID492965, AID493232, AID504717, AID504718]; assay type: functional
[5] = Fluorescence-based cell-based high throughput dose response assay for inhibitors of the interaction of nucleotide-binding oligomerization domain containing 2 (NOD2) and the receptor-interacting serine-threonine kinase 2 (RIPK2).; assay type: functional; details: Homo sapiens
[6] = biological target: T4, Sphingosine 1-phosphate receptor 4 (Homo sapiens, UniProt O95977); experiment: Fluorescence dose response cell-based high throughput screening assay for antagonists of the Sphingosine 1-Phosphate Receptor 4 (S1P4). [Related pubchem assays: 1524 (Confirmation in triplicates.), 1510 (Primary screen.)]; assay type: functional
T4 sequence (O95977 whole entry): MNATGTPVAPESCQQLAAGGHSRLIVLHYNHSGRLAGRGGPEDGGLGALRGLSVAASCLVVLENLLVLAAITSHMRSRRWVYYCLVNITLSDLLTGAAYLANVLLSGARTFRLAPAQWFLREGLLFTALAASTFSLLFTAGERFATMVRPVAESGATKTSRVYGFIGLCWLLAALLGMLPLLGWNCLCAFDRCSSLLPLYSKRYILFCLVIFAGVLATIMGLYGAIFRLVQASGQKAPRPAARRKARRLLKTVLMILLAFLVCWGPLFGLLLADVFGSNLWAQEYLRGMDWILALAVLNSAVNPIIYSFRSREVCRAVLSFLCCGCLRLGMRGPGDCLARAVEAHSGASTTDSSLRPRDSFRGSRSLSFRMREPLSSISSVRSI

Beta Lactamase = Beta Lactamase (Pseudomonas aeruginosa, UniProt Q932Y6); experiment: BLA reporter interference, concentration series – BLA reporter cells, FRET fluorescence, artefact control for NOD2-RIPK2 interaction inhibitor project, dose response (AID 651552); assay type: functional, cell-based
[7] = as §1, with “Fluorescence-based” for “Homogeneous time resolved fluorescence (HTRF)-based”, “cell-based high throughput” for “cell-based”, “CHO” for “CHO-K1”; assay type: functional
[8] = Luminescence Cell-Based Dose Confirmation HTS to Identify Inhibitors of Platelet Dense Granule Release. [Related pubchem assays: 1663 (Primary HTS), 1678 (Summary of Project)]; assay type: functional
[9] = biological target: Heat shock protein HSP 90-alpha (Homo sapiens, UniProt P07900); assay type: functional, organism-based
[10] = biological target: T2, Voltage-gated N-type calcium channel alpha-1B subunit/Amyloid beta A4 precursor protein-binding family A member 1; assay type: protein assay; remark: listed apart in the source
[11] = biological target: Luciferin 4-monooxygenase (Photinus pyralis, UniProt P08659); experiment: inhibition of purified Photinus pyralis luciferase – biochemical, luminescence, dose response (AID 1891)
Chain of Luciferin 4-monooxygenase (P08659 whole entry): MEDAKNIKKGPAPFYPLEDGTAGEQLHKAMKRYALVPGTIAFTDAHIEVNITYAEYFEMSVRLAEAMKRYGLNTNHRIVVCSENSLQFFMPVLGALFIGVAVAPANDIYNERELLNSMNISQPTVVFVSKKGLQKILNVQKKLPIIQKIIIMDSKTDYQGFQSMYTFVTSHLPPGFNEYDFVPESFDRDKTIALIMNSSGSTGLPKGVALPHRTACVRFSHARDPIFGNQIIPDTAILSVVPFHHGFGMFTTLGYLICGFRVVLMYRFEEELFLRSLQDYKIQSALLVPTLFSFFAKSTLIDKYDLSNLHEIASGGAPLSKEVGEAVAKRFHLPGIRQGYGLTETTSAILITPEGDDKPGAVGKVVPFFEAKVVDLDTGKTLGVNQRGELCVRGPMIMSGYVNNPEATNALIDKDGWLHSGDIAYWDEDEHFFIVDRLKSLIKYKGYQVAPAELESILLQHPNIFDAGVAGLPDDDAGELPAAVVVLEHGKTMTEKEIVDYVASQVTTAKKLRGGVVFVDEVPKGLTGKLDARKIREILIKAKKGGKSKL

T2 sequence (Q00975 whole entry): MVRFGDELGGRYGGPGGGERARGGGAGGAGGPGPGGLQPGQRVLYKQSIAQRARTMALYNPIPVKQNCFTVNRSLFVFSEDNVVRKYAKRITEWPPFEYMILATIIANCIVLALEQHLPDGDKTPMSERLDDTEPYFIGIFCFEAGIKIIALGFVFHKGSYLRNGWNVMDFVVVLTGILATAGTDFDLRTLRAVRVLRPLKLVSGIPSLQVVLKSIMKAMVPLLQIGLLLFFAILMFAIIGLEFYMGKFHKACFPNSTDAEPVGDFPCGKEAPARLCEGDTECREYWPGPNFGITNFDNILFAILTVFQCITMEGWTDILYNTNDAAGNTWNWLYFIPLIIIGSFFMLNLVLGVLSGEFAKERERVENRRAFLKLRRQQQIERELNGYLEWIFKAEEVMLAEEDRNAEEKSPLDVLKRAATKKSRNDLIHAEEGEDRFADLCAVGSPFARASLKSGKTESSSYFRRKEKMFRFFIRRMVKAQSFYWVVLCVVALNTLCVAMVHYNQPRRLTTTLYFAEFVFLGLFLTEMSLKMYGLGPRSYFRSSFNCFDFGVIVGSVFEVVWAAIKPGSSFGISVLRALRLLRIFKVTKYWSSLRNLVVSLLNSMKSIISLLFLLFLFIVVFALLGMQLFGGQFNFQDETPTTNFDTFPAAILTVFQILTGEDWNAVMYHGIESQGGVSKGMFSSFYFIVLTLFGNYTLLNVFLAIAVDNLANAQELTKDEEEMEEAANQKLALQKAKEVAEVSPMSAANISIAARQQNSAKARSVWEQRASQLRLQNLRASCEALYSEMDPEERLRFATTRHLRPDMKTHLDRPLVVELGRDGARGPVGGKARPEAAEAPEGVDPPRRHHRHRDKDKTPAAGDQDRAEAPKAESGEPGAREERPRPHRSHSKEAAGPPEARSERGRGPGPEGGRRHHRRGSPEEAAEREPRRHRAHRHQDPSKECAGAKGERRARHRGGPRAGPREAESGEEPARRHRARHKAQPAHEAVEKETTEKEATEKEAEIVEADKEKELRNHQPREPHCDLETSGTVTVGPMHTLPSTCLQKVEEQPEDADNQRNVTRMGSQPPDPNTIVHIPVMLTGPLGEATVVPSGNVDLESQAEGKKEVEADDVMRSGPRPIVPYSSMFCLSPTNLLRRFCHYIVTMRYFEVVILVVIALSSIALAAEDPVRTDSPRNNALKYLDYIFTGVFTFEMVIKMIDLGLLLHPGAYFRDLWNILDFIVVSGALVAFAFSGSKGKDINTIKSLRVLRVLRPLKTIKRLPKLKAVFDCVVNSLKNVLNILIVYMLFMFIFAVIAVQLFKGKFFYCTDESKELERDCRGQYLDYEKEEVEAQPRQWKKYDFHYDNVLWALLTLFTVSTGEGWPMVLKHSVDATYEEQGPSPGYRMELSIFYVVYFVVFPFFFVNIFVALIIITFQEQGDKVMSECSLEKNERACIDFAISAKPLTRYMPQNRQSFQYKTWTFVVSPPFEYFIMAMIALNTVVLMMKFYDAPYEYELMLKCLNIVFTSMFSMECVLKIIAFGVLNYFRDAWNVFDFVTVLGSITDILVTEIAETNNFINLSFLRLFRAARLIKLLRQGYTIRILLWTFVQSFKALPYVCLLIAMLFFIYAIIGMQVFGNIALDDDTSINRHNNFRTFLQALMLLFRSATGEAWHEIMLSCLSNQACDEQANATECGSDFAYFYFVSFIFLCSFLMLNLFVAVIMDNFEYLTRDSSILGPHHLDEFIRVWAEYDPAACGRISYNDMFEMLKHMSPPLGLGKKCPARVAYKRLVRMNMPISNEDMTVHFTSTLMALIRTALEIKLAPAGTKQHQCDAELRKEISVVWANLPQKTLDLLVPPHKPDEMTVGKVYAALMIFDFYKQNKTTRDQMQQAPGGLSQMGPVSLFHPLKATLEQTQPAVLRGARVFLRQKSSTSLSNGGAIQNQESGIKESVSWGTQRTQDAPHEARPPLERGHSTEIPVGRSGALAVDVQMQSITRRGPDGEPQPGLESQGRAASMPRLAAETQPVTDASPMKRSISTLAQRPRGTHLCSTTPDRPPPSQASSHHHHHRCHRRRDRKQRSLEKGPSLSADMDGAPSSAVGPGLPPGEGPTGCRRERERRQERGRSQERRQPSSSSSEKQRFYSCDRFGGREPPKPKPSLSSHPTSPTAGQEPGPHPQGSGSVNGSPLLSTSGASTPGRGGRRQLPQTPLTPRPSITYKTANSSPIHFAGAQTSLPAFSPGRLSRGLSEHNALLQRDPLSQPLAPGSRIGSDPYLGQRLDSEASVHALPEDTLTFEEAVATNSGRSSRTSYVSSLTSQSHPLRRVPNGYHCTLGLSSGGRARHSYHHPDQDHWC
T2 sequence (Q02410 whole entry): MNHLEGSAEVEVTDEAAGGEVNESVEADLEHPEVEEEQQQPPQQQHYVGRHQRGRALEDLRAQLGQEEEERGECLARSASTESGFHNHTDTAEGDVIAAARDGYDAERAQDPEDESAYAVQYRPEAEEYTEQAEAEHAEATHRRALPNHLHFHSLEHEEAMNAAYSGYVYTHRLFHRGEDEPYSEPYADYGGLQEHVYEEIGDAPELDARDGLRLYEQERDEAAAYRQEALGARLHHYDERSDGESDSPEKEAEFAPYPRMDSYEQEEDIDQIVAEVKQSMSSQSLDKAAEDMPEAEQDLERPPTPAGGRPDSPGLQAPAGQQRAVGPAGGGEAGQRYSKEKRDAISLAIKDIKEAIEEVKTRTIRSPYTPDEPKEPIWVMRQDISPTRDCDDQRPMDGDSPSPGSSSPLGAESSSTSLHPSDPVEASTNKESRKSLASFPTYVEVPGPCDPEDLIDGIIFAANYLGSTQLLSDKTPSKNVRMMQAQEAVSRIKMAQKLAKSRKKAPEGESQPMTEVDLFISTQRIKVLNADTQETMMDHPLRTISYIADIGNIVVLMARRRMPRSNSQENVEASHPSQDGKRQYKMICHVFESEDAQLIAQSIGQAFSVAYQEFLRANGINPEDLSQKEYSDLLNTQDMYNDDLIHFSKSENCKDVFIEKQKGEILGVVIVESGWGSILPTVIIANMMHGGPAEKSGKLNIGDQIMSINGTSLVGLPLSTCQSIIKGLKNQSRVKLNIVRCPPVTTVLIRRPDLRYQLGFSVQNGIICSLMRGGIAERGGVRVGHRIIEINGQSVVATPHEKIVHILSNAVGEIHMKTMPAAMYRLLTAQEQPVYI
Chain of Sphingosine 1-phosphate receptor 1 (P21453 whole entry): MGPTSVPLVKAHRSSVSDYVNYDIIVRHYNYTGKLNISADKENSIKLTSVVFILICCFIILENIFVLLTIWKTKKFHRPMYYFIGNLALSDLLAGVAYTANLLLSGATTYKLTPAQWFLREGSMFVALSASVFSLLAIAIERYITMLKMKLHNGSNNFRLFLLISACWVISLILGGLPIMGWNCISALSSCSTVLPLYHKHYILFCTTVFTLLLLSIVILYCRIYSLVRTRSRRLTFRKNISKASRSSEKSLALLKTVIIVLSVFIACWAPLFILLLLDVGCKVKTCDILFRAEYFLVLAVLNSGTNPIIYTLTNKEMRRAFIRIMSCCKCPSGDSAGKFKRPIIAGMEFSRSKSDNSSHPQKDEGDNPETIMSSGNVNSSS
Chain of Beta Lactamase (Q932Y6 whole entry): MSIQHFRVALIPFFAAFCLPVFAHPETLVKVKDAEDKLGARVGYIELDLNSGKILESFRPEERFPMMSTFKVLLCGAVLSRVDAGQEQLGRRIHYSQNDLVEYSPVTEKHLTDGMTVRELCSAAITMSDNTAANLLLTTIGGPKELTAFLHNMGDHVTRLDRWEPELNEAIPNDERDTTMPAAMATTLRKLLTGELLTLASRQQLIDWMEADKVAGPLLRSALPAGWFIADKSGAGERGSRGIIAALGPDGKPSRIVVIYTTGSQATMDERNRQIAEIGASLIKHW

| Structure (SMILES) | IC50 (Coagulation factor XII) | IC50 (CHO-K1) | IC50 [1] | IC50 [2] | IC50 [3] | IC50 [4] | IC50 [5] | IC50 [6] | IC50 (Beta Lactamase) | IC50 [7] | EC50 [8] | AC50 [9] | IC50 [10] | EC50 [11] |
| --- | --- | --- | --- | --- | --- | --- | --- | --- | --- | --- | --- | --- | --- | --- |
| CC(C)NC(=O)CCCc1cn(C)c2ccccc12 | > 50 µM (inactive) |  |  |  |  |  |  |  |  |  |  |  |  |  |
| O=C1C=C(c2ccc(Cl)cc2)C(=O)N1Nc1ccccc1 |  | 50.7 µM (inactive) | 13.6 µM (not active) | 21.1 µM (active) | 3.73 µM (active) | 3.12 µM (active) | 1.03 µM (active) | 1.95 µM (active) | 13 µM (inactive) | 4.98 µM (active) | 21.5 µM (active) | 0.267 µM (active) | > 50 µM (inactive) | > 112 µM (not active) |

Source: ChEMBL document CHEMBL1201862, “PubChem BioAssay data set” (2004)
